Data on one compound can be found in patent publication US20200397894A1, “COMPOSITIONS AND METHODS FOR TREATING CANCER” (University of Virginia Patent Foundation, priority 2016, published 2020).

Common to all, as to assay type: cell-based, human
Experiment [1] relates to hTERT-transformed keratonocytes (OKF6-TERT2). Description: Rereplication by FACS in control keratinocytes. As to the method: (§1) The effect of pevonedistat treatment or CDT2, geminin, or EMI1 knockdown on the cell cycle (and induction of DNA rereplication) was assessed by flow cytometry with propidium iodide (PI) staining. Cells were harvested at 72 or 96 hours post-treatment with pevonedistat or post-transfection, respectively. Cells were collected, washed with PBS, and resuspended in ethanol (75%). Cells were subsequently treated with 20 μg of DNase-free RNase and stained with PI following the manufacturer's protocol. FACSCAN™ (Becton, Dickinson and Company, Franklin Lakes, N.J., United States of America) was used to analyze the samples and G0-G1, S, and G2-M fractions were segmented. Subsequent analysis using FLOWJO® (FLOWJO, LLC, Ashland, Oreg., United States of America) and ModFit (Verity Software House, Topsham, Me., United States of America) software was used to determine apoptotic and re-replicating fractions. Where indicated, Cal27 and FaDu cells were treated with pevonedistat for 48 hours and pulsed with BrdU (10 nM) for 1 hour in the dark prior to harvesting. […] Sampled were analyzed on a FACSCAN™ (Becton, Dickinson and Company, Franklin Lakes, N.J., United States of America), and different fractions of BrdU positive cells were determined using FLOWJO® (FLOWJO, LLC, Ashland, Oreg., United States of America) and ModFit (Verity Software House, Topsham, Me., United States of America) software.
A general note: Flow cytometry measures light scatter and fluorescence of single cells or particles in a stream.

Another experiment has as its system Cal27 or FaDu cells. Description: FACS analysis of HNSCC cells (line not given). How it is done:
as §1, with “Cells were harvested at 72 or 96 hours post-treatment with pevonedistat or post-transfection, respectively.” left out

A further experiment concerns FaDu cells. Briefly: Clonogenic survival assay for radiation sensitivity. The settings on record: for SF4: S 0.1; for SER (sensitivity enhancement ratio): at 10% survival. Further details: SF4: unit not given here. As to the method: The effect of pevonedistat treatment or transient silencing of CDT2, geminin, or EMI1 on cell proliferation or on radiation sensitivity was tested using clonogenic survival assays. Cells were transfected with the appropriate si-RNA 48 hours prior to seeding. Cells were then counted using COUNTESS™ Automated Cell Counter (INVITROGEN™, Carlsbad, Calif., United States of America) and were seeded at 15,000 cells/plate in 60 mm dishes. Cells were irradiated 24 hours after seeding with various doses and were cultured for 7-10 days. Once colonies reached the appropriate size (>50 cells each), cells were washed twice with cold PBS, fixed in cold 100% methanol for 10 minutes, and stained with crystal violet (0.5%) for 10 minutes. The plates were washed, dried, and imaged using IMAGE LAB™ software (BioRad Laboratories, Inc., Hercules, Calif., United States of America). QUANTITY ONE® software (BioRad Laboratories, Inc., Hercules, Calif., United States of America) was used to quantify the number of colonies and survival curves were established based on the linear quadratic model, using the formula S=e^−αD-βD2; where S represents the surviving fraction and D the dose of irradiation. Results are represented as mean standard deviation (SD) of three independent experiments normalized to the corresponding non-irradiated plates for each group. When the effect of pevonedistat on cell radiosensitivity was tested, cells were seeded at 15,000 cells/60 mm plate and allowed to adhere for 4-6 hours. Pevonedistat was then added upon cell adherence at varying concentrations and cells were irradiated the following day. The duration of the experiment and the stopping procedure were as described above.

Experiment [2] relates to cullin neddylation in Cal27 or FaDu cells. Description: Immunoblotting of cullin neddylation. The conditions noted are these: 50 nM pevonedistat, 24 or 48 hours. How it is done: HNSCC cells were lysed using radio-immunoprecipitation assay (RIPA) lysis buffer (50 mM Tris, pH 8.0; 150 mM NaCl, 1% NP-40; 0.5% sodium deoxycolate; 0.1% SDS; 1 mM Benzamidin-HCl; 0.5 μg/ml Leupeptin; 0.5 μg/ml Aprotinin; 1 μg/ml pepstatin; 20 mM NaF; 20 mM Na3VO4). Equal amounts of protein were electrophoretically separated in a polyacrylamide 8-12% gel (Bio-Rad Laboratories, Inc., Hercules, Calif., United States of America), trans-blotted to a nitrocellulose membrane, and incubated with primary antibodies for one hour at room temperature or overnight at 4° C. The immunoblot signals were detected by enhanced chemiluminescence (EMD Millipore Corporation, Billerica, Mass., United States of America).
A general note: A western blot detects proteins with antibodies after separation by electrophoresis.

Setting [3] is: 10 nM pevonedistat 24 hours prior to irradiation.
[4] abbreviates: 20 nM pevonedistat 24 hours prior to irradiation.
The mark [5] stands for this setting: 40 nM pevonedistat 24 hours prior to irradiation.
[6] abbreviates: 60 nM pevonedistat 24 hours prior to irradiation.

Several values for one entry are separate records, joined by “and”; a condition that tells them apart may be missing. Equal entries are not always repeated.

`NS(=O)(=O)OCC1CC(n2ccc3c(NC4CCc5ccccc54)ncnc32)CC1O` [pevonedistat, ((1S,2S,4R)-4-(4-((1S)-2,3-Dihydro-H-inden-1-ylamino)-7H-pyrrolo(2,3-d)pyrimidin-7-yl)-2-hydroxycyclopentyl)methyl sulphamate]: in experiment [1], the DNA rereplication entry is “not observed”. In addition, the “cells exhibiting sub-G1 DNA content” value in the experiment with Cal27 or FaDu cells (72 hours post-treatment) is 5-10%. Also, in the experiment on Cal27 or FaDu cells (as early as 24 hours following treatment), the “concentration at which rereplication was also observed” value was determined as 40 nM. Further, the “α (linear quadratic model)” value in the experiment with FaDu cells (setting [3]) worked out at 0.105; in the experiment with FaDu cells (setting [4]), 0.242; with FaDu cells (setting [5]), 0.241; with FaDu cells (setting [6]), 0.282. For the same compound, the “β (linear quadratic model)” value in the experiment with FaDu cells (setting [3]) is on record as 0.017; in the experiment with FaDu cells (setting [4]), 0.006; with FaDu cells (setting [5]), 0.014; with FaDu cells (setting [6]) it was 0.013. Further, the SF4 was found to be 8.979 in the experiment with FaDu cells (10 nM pevonedistat), 7.987 with FaDu cells (20 nM pevonedistat), 6.830 in the experiment on FaDu cells (40 nM pevonedistat) and 6.328 with FaDu cells (60 nM pevonedistat). Moreover, the “SER (sensitivity enhancement ratio)” value in the experiment with FaDu cells (10 nM pevonedistat) was 1.055; in the experiment with FaDu cells (20 nM pevonedistat), 1.186; with FaDu cells (40 nM pevonedistat), 1.387; in the experiment on FaDu cells (60 nM pevonedistat), 1.49 and 1.497. Further, the cullin neddylation entry in experiment [2] is reported as “inhibited cullin neddylation”.
